Laboratory results taken from US5322858A, “N,N'-substituted imidodicarbonimidic diamides derived from hydroxylamines” (Jacobus Pharmaceutical Co. Inc., priority 1992, dated 1994).
Converted amounts (≈) assume the structure as drawn.

Columns and labels:
M. tuberculosis (MTB) = assay: Broth dilution MIC against M. tuberculosis isolates; type: cell-based; settings: Mycobacterium tuberculosis, 168 h
Protocol: (§1) Testing of new drugs for activity against Mycobacterial infections is carried out in vitro and in vivo in well defined laboratory procedures which have been widely published. The method used to test for biological activity against growing Mycobacterium avium complex (MAC), Mycobacterium tuberculosis (MTB) and Mycobacterium kanasii (MK) are described by A. H. Gonzalez et al. in J. Antimicrob. Chemother. 1989, 24:19-22; S. Majumder and M. H. Cynamon, Amer. Soc. for Microbiology Mtgs, U-4, May 1992, abstract.
(§2) Activity in vitro was determined against clinical isolates of MAC, MTB and MK using a broth dilution method. Mycobacteria were grown for several days in 7H10 broth, ph 6.6, with 10% OADC enrichment and 0.05% Tween 80. Serial two-fold dilutions of antimicrobial drugs were prepared in 7H10 broth at 128 μg/ml and less. Cultures containing a final concentration of approximately 2.5×10^4 to 6.3×10^5 CFU/ml were incubated on a rotary shaker at 37° C. for 7 days and read where the minimum inhibitory concentration was defined as the MIC at the lowest concentration without visual turbidity. JPC7766 in these studies was compared to known active antimicrobial drugs Proguanil (PG), Cycloguanil (CG), Sulfamethazine (SM) and/or Dapsone (DDS).

M. avium (MAC) = assay: Broth dilution MIC against Mycobacterium avium complex isolates; type: cell-based; settings: 168 h
Protocol: as §1, §2

M. kanasii (MK) = assay: Broth dilution MIC against M. kanasii isolate; type: cell-based; settings: 168 h
Protocol: as §1, §2

Pneumocystis carinii [1] = assay: Prevention of Pneumocystis carinii infection in immunosuppressed rats; type: in vivo; settings: 125 mg/kg daily
Protocol: In this method rats are immunosuppressed with high doses of glucocorticosteroids while being protected from bacterial infection by concurrent administration of the antibiotic tetracycline. In a standard evaluation animals are immunosuppressed with steroids and various doses of test compounds are administered for six weeks during which time unprotected animals will develop pneumocystis pneumonitis. The percentage of animals free of the disease represents the effectiveness of a selected dose of test drug.
A customary method to produce pneumocystis in the animals is to administer 2 mg of dexamethasone and 50 mg tetracycline hydrochloride per liter of drinking water. The test compounds are integrated in the food.

Pneumocystis carinii [2] = settings: 125 mg/kg; cited from earlier work
P. berghei = P. berghei infection in mice, injected vs. oral doses, 50% cure (Table 2)
From the text: Comparative tests in vivo in mice against Plasmodium have been carried out. […] Premature deaths of animals (earlier than five days post infection) are considered as indications of toxicity.
These tests systems are described in detail in publications by L. Rane and D. S. Rane, 9th Int. […] Trop. Med. Malaria. (1973) 1:281 (#406) and (2) T. S. Osdedne, P. B. Russell and L. Rane, J. Med. Chem. 1967. 10:431.
In this methodology, groups of 5 or 10 mice are infected with a standard inoculum of a blood-induced P. berghei infection and are treated with a single subcutaneous dose ([…]) of test drug suspended in peanut oil or a single oral dose of test drug suspended in hexamethyl cellulose and Tween. The animals are then observed for a maximum of thirty days. […] Animals surviving for thirty days are considered cured.

## CC1(C)N=C(N)N=C(N)N1c1ccc(Cl)cc1 [Cycloguanil]
M. tuberculosis (MTB); isolate MTB 311
  MIC: 64 µg/mL (≈ 254 µM)
M. tuberculosis (MTB); H37RV, isolate MTB H37 Rv
  MIC: 64 µg/mL (≈ 254 µM)
M. avium (MAC); isolate MAC LPR
  MIC: > 128 µg/mL
M. kanasii (MK)
  MIC: 64 µg/mL (≈ 254 µM)

## Nc1ccc(S(=O)(=O)c2ccc(N)cc2)cc1 [Dapsone]
Pneumocystis carinii [1]
  Efficacy: 100%
Pneumocystis carinii [1]; infected/treated
  # infected: 0/10
Pneumocystis carinii [2]
  protection from pneumocystis: fully effective
M. avium (MAC); isolate MAC 101
  MIC: 16 µg/mL (≈ 64.4 µM)
M. avium (MAC); isolate MAC FAR
  MIC: 64 µg/mL (≈ 258 µM)
M. avium (MAC); isolate MAC LPR
  MIC: 32 µg/mL (≈ 129 µM)

## [H]/N=C(\N/C(=N/[H])Nc1ccc(Cl)cc1)NC(C)C [Proguanil]
P. berghei; oral (PO), @ >160 mg/kg
  Toxicity: Toxic
P. berghei; single oral dose
  50% cures; oral PO ED-50: No Cures
P. berghei; subcutaneous, in peanut oil
  50% cure; injected SQ ED-50: NO CURES
M. avium (MAC); isolate MAC 101
  MIC: > 128 µg/mL
M. avium (MAC); isolate MAC FAR
  MIC: 64 µg/mL (≈ 252 µM)
M. avium (MAC); isolate MAC LPR
  MIC: 128 µg/mL (≈ 504 µM)

## Cc1cc(C)nc(NS(=O)(=O)c2ccc(N)cc2)n1 [Sulfamethazine]
M. tuberculosis (MTB); isolate MTB 311
  MIC: 64 µg/mL (≈ 230 µM)
M. tuberculosis (MTB); H37RV, isolate MTB H37 Rv
  MIC: 64 µg/mL (≈ 230 µM)
M. avium (MAC); isolate MAC 101
  MIC: > 128 µg/mL
M. avium (MAC); isolate MAC FAR
  MIC: 16 µg/mL (≈ 57.5 µM)
M. avium (MAC); isolate MAC LPR
  MIC: 32 µg/mL (≈ 115 µM)
M. kanasii (MK)
  MIC: 64 µg/mL (≈ 230 µM)

## CC1(C)N=C(N)N=C(N)N1OCCCOc1cc(Cl)c(Cl)cc1Cl [WR99210]
P. berghei; Plasmodium berghei, in Mus musculus, sc, read-out: 50% cure, injected SQ ED-50
  ED50: 245 mg/kg
P. berghei; oral (PO), @ 640 mg/kg
  Cures: No Cures
